# Reference: US12459974B2, “Bicyclic peptide ligands specific for Nectin-4” (priority 2018, dated 2025)
# *1 amine or outer side, *2 acyl side, *3 side chain or, on linkers, in order; H or OH if unused. Where a SMILES comes first, the peptide text is derived from it. Bridges are numbered along the chain shown (N, C = ends). Roman numbers before positions name the chains, in order. [ ]: non-standard residue; d: D form. The star is where a group is joined. TATA = O=C(CC[*:1])N1CN(C(=O)CC[*:2])CN(C(=O)CC[*:3])C1; Dolaproine = CO[C@@H]([C@@H]1CCCN1)[C@@H](C)C(=O)O; Dil = CC[C@H](C)[C@H](NC)[C@@H](CC(=O)O)OC; X3 = O=C(CCCC(=O)[*:2])NCCC(=O)[*:1]; PABC = O=C(OCc1ccc(N[*:1])cc1)[*:2]; X4 = C[C@@H](N*)[C@@H](O)c1ccccc1; hArg = N=C(N)NCCCC[C@H](N)C(=O)O; Cit = NC(=O)NCCC[C@H](N)C(=O)O; NMeV = CN[C@H](C(=O)O)C(C)C; Sar = CNCC(=O)O
# Legend:
# [1] = target: T1, human Nectin-4 (Homo sapiens, UniProt Q96NY8); test: Nectin-4 direct binding assay (fluorescence polarisation); conditions: fluorescently tagged peptide, TATA scaffold
# T1 sequence (Q96NY8 32-510): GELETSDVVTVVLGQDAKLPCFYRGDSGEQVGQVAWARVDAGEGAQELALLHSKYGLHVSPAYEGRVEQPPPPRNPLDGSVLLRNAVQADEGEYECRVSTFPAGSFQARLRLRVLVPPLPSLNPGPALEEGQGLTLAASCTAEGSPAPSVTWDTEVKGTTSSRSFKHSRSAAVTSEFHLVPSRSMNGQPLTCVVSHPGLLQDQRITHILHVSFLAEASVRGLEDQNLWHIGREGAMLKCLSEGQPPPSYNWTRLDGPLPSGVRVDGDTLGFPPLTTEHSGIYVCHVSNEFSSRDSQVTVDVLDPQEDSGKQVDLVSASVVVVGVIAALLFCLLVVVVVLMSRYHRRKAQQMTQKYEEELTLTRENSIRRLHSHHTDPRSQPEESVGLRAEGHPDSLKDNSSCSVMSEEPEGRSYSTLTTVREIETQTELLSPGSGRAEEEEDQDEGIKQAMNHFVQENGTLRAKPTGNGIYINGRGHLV
# Description: Affinity of the peptides of the invention for human Nectin-4 (Ki) was determined using a fluorescence polarisation assay, in accordance with the methods disclosed in WO 2016/067035. Peptides of the invention with a fluorescent tag (either fluorescein, SIGMA or Alexa Fluor488™, Fisher Scientific) were diluted to 2.5 nM in PBS with 0.01% tween 20 or 50 mM HEPES with 100 mM NaCl and 0.01% tween pH 7.4 (both referred to as assay buffer). This was combined with a titration of protein in the same assay buffer as the peptide to give 1 nM peptide in a total volume of 25 μL in a black walled and bottomed low bind low volume 384 well plates, typically 5 μL assay buffer, 10 μL protein then 10 μL fluorescent peptide. […] Measurements were conducted on a BMG PHERAstar FS equipped with an “FP 485 520 520” optic module which excites at 485 nm and detects parallel and perpendicular emission at 520 nm. The PHERAstar FS was set at 25° C. with 200 flashes per well and a positioning delay of 0.1 second, with each well measured at 5 to 10 minute intervals for 60 minutes. The gain used for analysis was determined for each tracer at the end of the 60 minutes where there was no protein in the well. Data was analysed using Systat Sigmaplot version 12.0. mP values were fit to a user defined quadratic equation to generate a Kd value: f=ymin+(ymax−ymin)/Lig*((x+Lig+Kd)/2-sqrt((((x+Lig+Kd)/2)^2)−(Lig*x))). […]
# [2] = target: T1, human Nectin-4; test: Nectin-4 competition binding assay (fluorescence polarisation); conditions: competition with fluorescent peptide SEQ ID NO: 217; read-out: Ki
# How it was run: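 Ki derived by cubic-equation fit of mP data, with tracer peptide concentration, its Kd and Nectin-4 level as fixed inputs. Competition set up by adding 2-fold peptide dilutions (≤5% DMSO), then Nectin-4, then fluorescent peptide; polarisation measured as for direct binding.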
# [3] = target: T2, human Nectin-4 (Homo sapiens, UniProt Q96NY8); test: Nectin-4 Biacore SPR binding assay
# T2 sequence (Q96NY8 32-349): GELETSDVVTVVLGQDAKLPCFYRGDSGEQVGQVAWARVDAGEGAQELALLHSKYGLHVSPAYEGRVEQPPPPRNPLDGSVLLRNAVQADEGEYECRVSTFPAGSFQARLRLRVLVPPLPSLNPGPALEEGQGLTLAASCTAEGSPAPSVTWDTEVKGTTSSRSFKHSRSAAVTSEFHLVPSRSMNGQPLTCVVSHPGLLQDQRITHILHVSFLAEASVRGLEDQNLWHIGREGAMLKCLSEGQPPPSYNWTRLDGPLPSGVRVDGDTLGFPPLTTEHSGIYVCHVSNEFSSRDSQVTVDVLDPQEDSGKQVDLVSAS
# Description: Biacore experiments were performed to determine ka (M^−1 s^−1), kd (s^−1), KD (nM) values of monomeric peptides binding to human Necin-4 protein (obtained from Charles River).
# Human Nectin-4 (residues Gly32-Ser349; NCBI RefSeq: NP_112178.2) with a gp67 signal sequence and C-terminal FLAG tag was cloned into pFastbac-1 and baculovirus made using standard Bac-to-Bac™ protocols (Life Technologies). Sf21 cells at 1×10^6 ml^−1 in Excell-420 medium (Sigma) at 27° C. were infected at an MOI of 2 with a P1 virus stock and the supernatant harvested at 72 hours. […] The protein was eluted with 100 μg/ml FLAG peptide. The eluted protein was concentrated to 2 ml and loaded onto an S-200 Superdex column (GE Healthcare) in PBS at 1 ml/min. 2 ml fractions were collected and the fractions containing Nectin-4 protein were concentrated to 16 mg/ml.
# The protein was extensively desalted to remove uncoupled biotin using spin columns into PBS.
# For analysis of peptide binding, a Biacore 3000 instrument was used utilising a CM5 chip (GE Healthcare). Streptavidin was immobilized on the chip using standard amine-coupling chemistry at 25° C. with HBS-N (10 mM HEPES, 0.15 M NaCl, pH 7.4) as the running buffer. Briefly, the carboxymethyl dextran surface was activated with a 7 minute injection of a 1:1 ratio of 0.4 M 1-ethyl-3-(3-dimethylaminopropyl) carbodiimide hydrochloride (EDC)/0.1 M N-hydroxy succinimide (NHS) at a flow rate of 10 μl/min. For capture of streptavidin, the protein was diluted to 0.2 mg/ml in 10 mM sodium acetate (pH 4.5) and captured by injecting 120 μl of streptavidin onto the activated chip surface. Residual activated groups were blocked with a 7 minute injection of 1 M ethanolamine (pH 8.5) and biotinylated Nectin-4 captured to a level of 1,200-1,800 RU. Buffer was changed to PBS/0.05% Tween 20 and a dilution series of the peptides was prepared in this buffer with a final DMSO concentration of 0.5%. The top peptide concentration was 100 nM with 6 further 2-fold dilutions. The SPR analysis was run at 25° C. at a flow rate of 50 μl/min with 60 seconds association and dissociation between 400 and 1,200 seconds depending upon the individual peptide. Data were corrected for DMSO excluded volume effects. All data were double-referenced for blank injections and reference surface using standard processing procedures and data processing and kinetic fitting were performed using Scrubber software, version 2.0c (BioLogic Software). Data were fitted using simple 1:1 binding model allowing for mass transport effects where appropriate.
# [4] = tested on: HT-1376 xenograft; test: Example 2: in vivo efficacy in HT-1376 xenograft (bladder cancer model) in CB17-SCID mice; conditions: 1 mg/kg
# Description: The major endpoint was to see if the tumor growth could be delayed or mice could be cured. Tumor volume was measured three times weekly in two dimensions using a caliper, and the volume was expressed in mm^3 using the formula: V=0.5 a×b^2 where a and b are the long and short diameters of the tumor, respectively. The tumor size was then used for calculations of T/C value. The T/C value (in percent) is an indication of antitumor effectiveness; T and C are the mean volumes of the treated and control groups, respectively, on a given day. TGI was calculated for each group using the formula: TGI (%)=[1−(Ti−T0)/(Vi−V0)]×100; Ti is the average tumor volume of a treatment group on a given day, T0 is the average tumor volume of the treatment group on the day of treatment start, Vi is the average tumor volume of the vehicle control group on the same day with Ti, and V0 is the average tumor volume of the vehicle group on the day of treatment start.
# A one-way ANOVA was performed to compare tumor volume among groups, and when a significant F-statistics (a ratio of treatment variance to the error variance) was obtained, comparisons between groups were carried out with Games-Howell test. […] P<0.05 was considered to be statistically significant.
# • Species: Mus Musculus • Strain: CB17-SCID • Age: 6-8 weeks • Sex: female • Body weight: 18-22 g • Number of animals: 21-41 mice plus spare • Animal supplier: Shanghai LC Laboratory Animal Co., LTD.
# The HT-1376 tumor cells were maintained in vitro as a monolayer culture in EMEM medium supplemented with 10% heat inactivated fetal bovine serum at 37° C. in an atmosphere of 5% CO2 in air. The tumor cells were routinely subcultured twice weekly by trypsin-EDTA treatment.
# Each mouse was inoculated subcutaneously at the right flank with HT-1376 tumor cells (5×10^6) in 0.2 ml of PBS with matrigel (1:1) for tumor development. Animals were randomized when the average tumor volume reached 153-164 mm^3.
# Tumor growth inhibition rate for Test articles in the HT-1376 xenograft model was calculated based on tumor volume measurements at day 21 after the start of treatment.
SMILES,Ki [1] [nM],Ki [2] [nM],Kd [3] [nM],bodyweight (in words) [4]
"CC(=O)N[C@H]1CSCCC(=O)N2CN3CN(C2)C(=O)CCSC[C@H](NC(=O)[C@H](CC(=O)O)NC(=O)[C@H](Cc2ccc(O)cc2)NC(=O)[C@H](CO)NC(=O)[C@H]([C@@H](C)O)NC(=O)[C@H]([C@@H](C)O)NC(=O)[C@H](C(C)C)NC1=O)C(=O)N[C@@H](Cc1c[nH]c2ccccc12)C(=O)N[C@@H](C(C)C)C(=O)N[C@@H]([C@@H](C)O)C(=O)N[C@@H](CC(C)C)C(=O)NCC(=O)N[C@@H](Cc1c[nH]cn1)C(=O)N[C@H](C(=O)N[C@@H](CO)C(=O)N[C@@H](CCCNC(=N)N)C(=O)N[C@@H](Cc1ccccc1)C(N)=O)CSCCC3=O [BCY7393, Ac-(SEQ ID NO: 37)-SRF] (Ac-CVTTSYDCWVTLGHCSRF-NH2; linker 1-8-15 via TATA; C-terminus assumed)",,232,1380,
"CC[C@H](C)[C@@H]([C@@H](CC(=O)N1CCC[C@H]1[C@H](OC)[C@@H](C)C(=O)N[C@H](C)[C@@H](O)c1ccccc1)OC)N(C)C(=O)[C@@H](NC(=O)[C@H](C(C)C)N(C)C(=O)OCc1ccc(NC(=O)[C@H](CCCNC(N)=O)NC(=O)[C@@H](NC(=O)CCCC(=O)NCCC(=O)N(C)CC(=O)N(C)CC(=O)N(C)CC(=O)N(C)CC(=O)N(C)CC(=O)N(C)CC(=O)N(C)CC(=O)N(C)CC(=O)N(C)CC(=O)N(C)CC(=O)N[C@H]2CSCCC(=O)N3CN4CN(C3)C(=O)CCSC[C@H](NC(=O)[C@@H](CC(=O)O)NC(=O)[C@H](Cc3ccccc3)NC(=O)[C@@H]3CCCN3C2=O)C(=O)N[C@@H](CCSC)C(=O)N[C@@H](CCCCNC(=N)N)C(=O)N[C@@H](CC(N)=O)C(=O)N[C@@H](Cc2c[nH]c3ccccc23)C(=O)N[C@@H](CO)C(=O)N[C@@H]([C@@H](C)O)C(=O)N2CCC[C@H]2C(=O)N[C@@H]([C@@H](C)CC)C(=O)N[C@@H](Cc2c[nH]c3ccccc23)C(=O)N[C@H](C(N)=O)CSCCC4=O)C(C)C)cc1)C(C)C [BCY7825, MMAE-PABC-Cit-Val-Glutaryl-BCY7814] (I: [Sar][Sar][Sar][Sar][Sar][Sar][Sar][Sar][Sar][Sar]CPF[dD]CM[hArg]NWSTPIWC-NH2 / II: V[Cit][PABC][NMeV]V[Dil][Dolaproine]-X4; linker I:11-I:15-I:25 via TATA; linker I:N-II:N via X3)",,,11.6,maintained the bodyweight well
"CC(=O)N[C@H]1CSCCC(=O)N2CN3CN(C2)C(=O)CCSC[C@H](NC(=O)[C@@H](CC(=O)O)NC(=O)[C@H](Cc2ccccc2)NC(=O)[C@@H]2CCCN2C1=O)C(=O)N[C@@H](CC(C)C)C(=O)N[C@@H](CCCCNC(=N)N)C(=O)N[C@@H](CC(N)=O)C(=O)N[C@@H](Cc1c[nH]c2ccccc12)C(=O)N[C@@H](CO)C(=O)N[C@@H]([C@@H](C)O)C(=O)N1CCC[C@H]1C(=O)N1CCC[C@H]1C(=O)N[C@@H](Cc1c[nH]c2ccccc12)C(=O)N[C@H](C(N)=O)CSCCC3=O [BCY8038, Ac-(SEQ ID NO: 160)] (Ac-CPF[dD]CL[hArg]NWSTPPWC-NH2; linker 1-5-15 via TATA; C-terminus assumed)",,8,44.5,

# Now from value to compound, other results behind:
Ki [1] [nM],Ki [2] [nM],Kd [3] [nM],SMILES,bodyweight (in words) [4]
269,,,"CC[C@H](C)[C@@H]1NC(=O)[C@H](CCCNC(=N)N)NC(=O)[C@H](CC(=O)O)NC(=O)[C@@H]2CSCCC(=O)N3CN(CN(C3)C(=O)CCSC[C@@H](C(=O)N[C@@H](C)C(N)=O)NC1=O)C(=O)CCSC[C@H](NC(=O)[C@H](Cc1c[nH]c3ccccc13)NC(=O)[C@H](CC(=O)O)NC(=O)[C@@H](N)C(C)C)C(=O)N[C@@H](C)C(=O)N1CCC[C@H]1C(=O)N[C@@H](CC(C)C)C(=O)N[C@@H](CC(=O)O)C(=O)N[C@@H](CC(=O)O)C(=O)N[C@@H](Cc1ccc(O)cc1)C(=O)N[C@@H](Cc1c[nH]c3ccccc13)C(=O)N2 [BCY462, VDW-(SEQ ID NO: 33)-A] (H-VDWCAPLDDYWCDRICA-NH2; linker 4-12-16 via TATA; N-terminus and C-terminus assumed)",
72,47,,"CC[C@H](C)[C@@H]1NC(=O)[C@H](CCCNC(=N)N)NC(=O)[C@H](CC(N)=O)NC(=O)[C@@H]2CSCCC(=O)N3CN(CN(C3)C(=O)CCSC[C@@H](C(=O)N[C@@H](C)C(N)=O)NC1=O)C(=O)CCSC[C@H](NC(=O)[C@H](Cc1c[nH]c3ccccc13)NC(=O)[C@H](CCCCN)NC(=O)[C@@H](N)CCC(N)=O)C(=O)N[C@@H](C)C(=O)N1CCC[C@H]1C(=O)N[C@@H](CC(C)C)C(=O)N[C@@H](CO)C(=O)N[C@@H](CC(=O)O)C(=O)N[C@@H](Cc1ccc(O)cc1)C(=O)N[C@@H](Cc1c[nH]c3ccccc13)C(=O)N2 [BCY3400, QKW-(SEQ ID NO: 34)-A] (H-QKWCAPLSDYWCNRICA-NH2; linker 4-12-16 via TATA; N-terminus and C-terminus assumed)",
